These results are taken from US12077503B2, “Substituted cyclic amides and their use as herbicides” (FMC CORPORATION, priority 2015, dated 2024).

Common to all, as to assay type: in vivo
Assay [1] concerns ragweed (common ragweed, Ambrosia elatior). As to the kind of experiment: Test A postemergence. Particulars: Ambrosia artemisiifolia, post-emergence, 240 h; for pest or weed control at 125 g/ha: 125 g ai/ha, postemergence, visual injury rating after approximately 10 d, read-out: Ragweed plant response rating (0 to 100 scale, 0 no effect, 100 complete control); for pest or weed control at 31 g/ha: Postemergence, 31 g ai/ha, visual injury after approx. 10 d, 0 to 100 scale, 0 no effect, 100 complete control, read-out: Plant response rating, Ragweed. In a few lines:
(§1)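 Preemergence soil spray on seeded pots or post-emergence spray on 1–2 leaf plants, in loam–sand blend. Greenhouse ~10 d. Visual rating 0–100 against untreated plants.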

Assay [2] relates to ryegrass, Italian (Italian ryegrass, Lolium multiflorum). Briefly: Test A postemergence. Particulars: Lolium multiflorum, post-emergence, 240 h; for pest or weed control at 125 g/ha: 125 g ai/ha, postemergence, visual injury rating after approximately 10 d, read-out: Ryegrass, Italian plant response rating (0 to 100 scale, 0 no effect, 100 complete control); for pest or weed control at 31 g/ha: Postemergence, 31 g ai/ha, visual injury after approx. 10 d, 0 to 100 scale, 0 no effect, 100 complete control, read-out: Plant response rating, Ryegrass, Italian. In a few lines:
as §1

For the next assay, the system named is corn (Zea mays). As to the kind of experiment: Test A postemergence. The settings on record: Zea mays, post-emergence, 240 h; for plant injury at 125 g/ha: 125 g ai/ha, postemergence, visual injury rating after approximately 10 d, read-out: Corn plant response rating (0 to 100 scale, 0 no effect, 100 complete control); for Corn plant response rating (crop injury, 0 = no effect, 100 = complete kill) at 31 g/ha: Postemergence, 31 g ai/ha, visual injury after approx. 10 d, 0 to 100 scale, 100 complete control. In a few lines:
as §1

The test system of assay [3] is blackgrass (Alopecurus myosuroides). Briefly: Test A postemergence. The settings on record: Alopecurus myosuroides, post-emergence, 240 h; for pest or weed control at 125 g/ha: 125 g ai/ha, postemergence, visual injury rating after approximately 10 d, read-out: Blackgrass plant response rating (0 to 100 scale, 0 no effect, 100 complete control); for pest or weed control at 31 g/ha: Postemergence, 31 g ai/ha, visual injury after approx. 10 d, 0 to 100 scale, 0 no effect, 100 complete control, read-out: Plant response rating, Blackgrass. In a few lines:
as §1

The subject of assay [4] is wheat (Triticum aestivum). As to the kind of experiment: Test A postemergence. The settings on record: Triticum aestivum, post-emergence, 240 h; for plant injury at 125 g/ha: 125 g ai/ha, postemergence, visual injury rating after approximately 10 d, read-out: Wheat plant response rating (0 to 100 scale, 0 no effect, 100 complete control); for plant injury at 31 g/ha: Postemergence, 31 g ai/ha, visual injury after approx. 10 d, 0 to 100 scale, 0 no effect, 100 complete control, read-out: Plant response rating, Wheat. The method, boiled down:
as §1

Assay [5] has as its system pigweed (Amaranthus retroflexus). As to the kind of experiment: Test A postemergence. The settings on record: Amaranthus retroflexus, post-emergence, 240 h; for pest or weed control at 125 g/ha: 125 g ai/ha, postemergence, visual injury rating after approximately 10 d, read-out: Pigweed plant response rating (0 to 100 scale, 0 no effect, 100 complete control); for pest or weed control at 31 g/ha: Postemergence, 31 g ai/ha, visual injury after approx. 10 d, 0 to 100 scale, 0 no effect, 100 complete control, read-out: Plant response rating, Pigweed. The method, boiled down: as §1

The subject of assay [6] is barnyardgrass (Echinochloa crus-galli). Briefly: Test A postemergence. The settings on record: Echinochloa crus-galli, post-emergence, 240 h; for pest or weed control at 125 g/ha: 125 g ai/ha, postemergence, visual injury rating after approximately 10 d, read-out: Barnyardgrass plant response rating (0 to 100 scale, 0 no effect, 100 complete control); for pest or weed control at 31 g/ha: Postemergence, 31 g ai/ha, visual injury after approx. 10 d, 0 to 100 scale, 0 no effect, 100 complete control, read-out: Plant response rating, Barnyardgrass. In a few lines:
as §1

The test system of a further assay is Kochia (Kochia scoparia). Briefly: Test A postemergence. Particulars: Bassia scoparia, post-emergence, 240 h; for pest or weed control at 125 g/ha: 125 g ai/ha, postemergence, visual injury rating after approximately 10 d, read-out: Kochia plant response rating (0 to 100 scale, 0 no effect, 100 complete control); for pest or weed control at 31 g/ha: Postemergence, 31 g ai/ha, visual injury after approx. 10 d, 0 to 100 scale, 0 no effect, 100 complete control, read-out: Plant response rating, Kochia. In a few lines: as §1

The subject of assay [7] is giant foxtail (Setaria faberii). As to the kind of experiment: Test A postemergence. Particulars: Setaria faberi, post-emergence, 240 h; for pest or weed control at 125 g/ha: 125 g ai/ha, postemergence, visual injury rating after approximately 10 d, read-out: Foxtail, Giant plant response rating (0 to 100 scale, 0 no effect, 100 complete control); for pest or weed control at 31 g/ha: Postemergence, 31 g ai/ha, visual injury after approx. 10 d, 0 to 100 scale, 0 no effect, 100 complete control, read-out: Plant response rating, Foxtail, Giant. In a few lines: as §1

The subject of assay [8] is Galium (catchweed bedstraw, Galium aparine). Briefly: Test A postemergence. The settings on record: Galium, post-emergence, 240 h; for pest or weed control at 125 g/ha: 125 g ai/ha, postemergence, visual injury rating after approximately 10 d, read-out: Galium plant response rating (0 to 100 scale, 0 no effect, 100 complete control); for pest or weed control at 31 g/ha: Postemergence, 31 g ai/ha, visual injury after approx. 10 d, 0 to 100 scale, 0 no effect, 100 complete control, read-out: Plant response rating, Galium. In a few lines:
as §1

For assay [9], the system named is sedge, umbrella (small-flower umbrella sedge, Cyperus difformis). Briefly: Test B flooded paddy test. The settings on record: Cyperus difformis, Flood, 250 g ai/ha; scale of 0 to 100 where 0 is no effect and 100 is complete control; read-out: Sedge, Umbrella plant response rating. The method, boiled down: (§2)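 Visual ratings (0 none to 100 complete control) are relative to untreated plants, taken 13–15 d after treatment in a greenhouse. Test material went straight into floodwater standing 3 cm above the soil, kept constant, on plants at the 2-leaf stage.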

The subject of assay [10] is barnyardgrass (Echinochloa crus-galli). Briefly: Test B flooded paddy test. The settings on record: Echinochloa crus-galli, Flood, 250 g ai/ha; scale of 0 to 100 where 0 is no effect and 100 is complete control; read-out: Barnyardgrass plant response rating. In a few lines: as §2
Assay [11] deals with ducksalad (Heteranthera limosa). Briefly: Test B flooded paddy test. Particulars: Heteranthera limosa, Flood, 250 g ai/ha; scale of 0 to 100 where 0 is no effect and 100 is complete control; read-out: Ducksalad plant response rating. The method, boiled down: as §2
The next assay concerns rice (Oryra sativa). As to the kind of experiment: Test B flooded paddy test. Particulars: Oryza sativa, Flood, 250 g ai/ha; scale of 0 to 100 where 0 is no effect and 100 is complete control; read-out: Rice plant response rating. The method, boiled down:
as §2

As to `CN1CC[C@H](c2cccc(OC(F)(F)F)c2)[C@@H](C(=O)Nc2ccc(F)c(F)c2F)C1=O` [Compound 808], the pest or weed control at 125 g/ha was 0% in assay [1]; 0% in assay [2]; 0% in assay [3]; 0% in assay [5]; 70% in assay [6]; 0% with Kochia (Kochia scoparia). The pest or weed control at 125 g/ha was determined as 80% in [7] and 0% in [8]. In addition, the pest or weed control at 31 g/ha amounted to 0% in assay [1]; 0% in [2]; 0% in [3]; 0% in assay [5]; 50% in assay [6]; 0% with Kochia (Kochia scoparia). Besides, the pest or weed control at 31 g/ha was determined as 70% in assay [7] and 0% in assay [8]. In addition, the plant injury at 125 g/ha (with corn (Zea mays); in assay [4]) was 0% throughout. The molecule further gave a Corn plant response rating (crop injury, 0 = no effect, 100 = complete kill) at 31 g/ha in the assay with corn (Zea mays) of 0%. Also, the plant injury at 31 g/ha in assay [4] worked out at 0%. Besides, the pest or weed control at 250 g/ha was determined as 0% in assay [9], 70% in assay [10], 100% in [11] and 15% in the assay on rice (Oryra sativa).
Regarding `CSc1ccccc1NC(=O)[C@H]1C(=O)N(C)CC[C@@H]1c1cccc(OC(F)(F)F)c1` [Compound 809], the pest or weed control at 125 g/ha (in [1]; in assay [2]; in assay [3]; in assay [5]; in assay [6]; with Kochia (Kochia scoparia)) was 0% throughout. The pest or weed control at 125 g/ha in assay [7] and in [8] was 0% each time. The pest or weed control at 31 g/ha (in [1]; in assay [2]; in assay [3]; in assay [5]; in assay [6]; in the assay with Kochia (Kochia scoparia)) was 0% throughout. The pest or weed control at 31 g/ha in assay [7] and in assay [8] was 0% throughout. Also, the plant injury at 125 g/ha (with corn (Zea mays); in [4]) was 0% each time. Moreover, the Corn plant response rating (crop injury, 0 = no effect, 100 = complete kill) at 31 g/ha with corn (Zea mays) amounted to 0%. For the same molecule, in assay [4], the plant injury at 31 g/ha worked out at 0%. The pest or weed control at 250 g/ha (in assay [9]; in assay [10]; in [11]; in the assay with rice (Oryra sativa)) was 0% each time.
For `CN1CC[C@H](c2ccc3c(c2)OC(F)(F)O3)[C@@H](C(=O)Nc2ccccc2C(F)(F)F)C1=O` [Compound 811], the pest or weed control at 125 g/ha in assay [1] came out at 0%; in assay [2], 0%; in assay [3], 0%; in assay [5], 0%; in [6] it was 40%; with Kochia (Kochia scoparia), 0%. Moreover, the figures for the pest or weed control at 125 g/ha in assay [7] and in assay [8] were 60% and 0%, respectively. Moreover, the pest or weed control at 31 g/ha (in assay [1]; in [2]; in [3]; in assay [5]; in [6]; in the assay with Kochia (Kochia scoparia)) was 0% in each case. In addition, the pest or weed control at 31 g/ha in [7] and in assay [8] was 0% throughout. Moreover, the plant injury at 125 g/ha (with corn (Zea mays); in [4]) was 0% throughout. In the assay with corn (Zea mays), this molecule displayed a Corn plant response rating (crop injury, 0 = no effect, 100 = complete kill) at 31 g/ha of 0%. Moreover, in assay [4], the plant injury at 31 g/ha came to 0%. Moreover, the pest or weed control at 250 g/ha stood at 40% in assay [9], 20% in [10], 40% in assay [11] and 0% in the assay on rice (Oryra sativa).
